The source of these data is patent publication US20050004126A1 (priority 2001, published 2005).

Like-named read-outs stand apart in the source and are kept apart here. Bounds are passed on as bounds.

Data set [1] has as its target T1, MMP-7FL (full-length matrilysin) (Homo sapiens, UniProt P09237).
T1 sequence (P09237 95-267): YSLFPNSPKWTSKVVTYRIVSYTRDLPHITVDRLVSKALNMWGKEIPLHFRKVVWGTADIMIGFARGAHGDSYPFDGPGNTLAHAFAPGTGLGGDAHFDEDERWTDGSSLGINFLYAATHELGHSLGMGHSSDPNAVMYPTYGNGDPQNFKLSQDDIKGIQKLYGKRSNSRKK
As to the kind of experiment: Thiopeptolide hydrolysis assay, MMP-7. The class given is biochemical.

Data set [2] addresses T2, MMP-2FL (full length Gelatinase A) (Homo sapiens, UniProt P08253).
T2 sequence (P08253 110-660): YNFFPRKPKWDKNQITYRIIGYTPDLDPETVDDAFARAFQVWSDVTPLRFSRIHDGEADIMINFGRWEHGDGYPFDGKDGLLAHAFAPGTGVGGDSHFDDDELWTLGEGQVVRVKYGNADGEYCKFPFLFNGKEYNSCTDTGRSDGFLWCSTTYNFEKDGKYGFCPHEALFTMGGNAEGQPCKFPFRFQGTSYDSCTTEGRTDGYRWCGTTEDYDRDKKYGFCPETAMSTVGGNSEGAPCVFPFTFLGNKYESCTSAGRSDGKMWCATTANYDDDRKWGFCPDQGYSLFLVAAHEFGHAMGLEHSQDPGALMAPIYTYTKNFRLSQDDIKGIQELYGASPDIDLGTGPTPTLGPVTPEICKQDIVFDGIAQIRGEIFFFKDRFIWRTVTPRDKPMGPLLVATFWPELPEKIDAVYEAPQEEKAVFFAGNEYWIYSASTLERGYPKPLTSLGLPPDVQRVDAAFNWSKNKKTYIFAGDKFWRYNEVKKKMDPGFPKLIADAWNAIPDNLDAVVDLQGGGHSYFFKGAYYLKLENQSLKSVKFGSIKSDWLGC
As to the kind of experiment: Thiopeptolide hydrolysis assay, MMP-2. Type of data set: biochemical.

Data set [3] addresses MMP-14CD (catalytic domain of membrane type 1 MMP) (Homo sapiens, UniProt P50281). Put plainly: Thiopeptolide hydrolysis assay, MMP-14. Type of data set: biochemical.
Data set [4] has as its target MMP-3CD (catalytic domain of stromelysin) (Homo sapiens, UniProt P08254). As to the kind of experiment: Thiopeptolide hydrolysis assay, MMP-3.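 Note: inhibition of thiopeptolide substrate (100 µM) cleavage by the MMP-3 catalytic domain, detected with DTNB at pH 6.0 with CaCl2, hydrolysis compared against runs lacking inhibitor.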 The class given is biochemical.
In data set [5] the target is MMP-9FL (full length Gelatinase B) (Homo sapiens, UniProt P14780). As to the kind of experiment: Thiopeptolide hydrolysis assay, MMP-9. Type of data set: biochemical.
Data set [6] concerns the target T3, MMP-1FL (full-length interstitial collagenase) (Homo sapiens, UniProt P03956).
T3 sequence (P03956 100-469): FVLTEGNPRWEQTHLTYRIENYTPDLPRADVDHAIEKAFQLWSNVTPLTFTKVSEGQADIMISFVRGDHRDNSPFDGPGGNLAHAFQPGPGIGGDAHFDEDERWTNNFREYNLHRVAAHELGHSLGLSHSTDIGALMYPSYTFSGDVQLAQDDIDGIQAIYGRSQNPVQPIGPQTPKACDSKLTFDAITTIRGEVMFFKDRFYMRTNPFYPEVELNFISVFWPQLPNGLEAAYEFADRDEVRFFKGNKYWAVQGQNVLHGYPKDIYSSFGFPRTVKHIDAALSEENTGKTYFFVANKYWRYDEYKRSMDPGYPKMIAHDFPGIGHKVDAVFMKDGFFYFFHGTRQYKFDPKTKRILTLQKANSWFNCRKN
As to the kind of experiment: Thiopeptolide hydrolysis assay, MMP-1. The class given is biochemical.
Protocol: They measure the amount by which a test compound reduces the hydrolysis of a thiopeptolide substrate caused by a matrix metalloproteinase enzyme.
Thiopeptolide substrates show virtually no decomposition or hydrolysis in the absence of a matrix metalloproteinase enzyme. A typical thiopeptolide substrate commonly utilized for assays is Ac-Pro-Leu-Gly-thioester-Leu-Leu-Gly-OEt. A 100 μL assay mixture will contain 50 mM of 2-morpholinoethane sulfonic acid monohydrate (MES, pH 6.0) 10 mM CaCl2, 100 μM thiopeptolide substrate, and 1 mM 5,5′-dithio-bis-(2-nitro-benzoic acid) (DTNB). […] The change in absorbance at 405 nm is monitored on a Thermo Max microplate reader (moleucular Devices, Menlo Park, Calif.) at room temperature (22° C.). […] Assays are carried out with and without matrix metalloproteinase inhibitor compounds, and the amount of hydrolysis is compared for a determination of inhibitory activity of the test compounds.

The target of data set [7] is MMP-13CD (catalytic domain of collagenase 3) (Homo sapiens, UniProt P45452). As to the kind of experiment: Thiopeptolide hydrolysis assay, MMP-13.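 Note: inhibition of enzymatic thiopeptolide substrate cleavage (100 µM) in pH 6.0 MES buffer with CaCl2 and DTNB, comparing hydrolysis with versus without inhibitor.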
Another data set has as its target MMP-13 (Homo sapiens, UniProt P45452). To be noted: cited from earlier work.
Another data set has as its system other MMP enzymes. The settings on record: Chen et al.; cited from earlier work.
[8] abbreviates: Table 1a, full-length enzyme, read-out: MMP07 (FL) IC50.
Where [9] appears, read: Table 1a, full-length enzyme, read-out: MMP02 (FL) IC50.
The mark [10] stands for this setting: Table 1a, catalytic domain, read-out: MMP14 (CD) IC50.
Setting [11] is: Table 1a, full-length enzyme, read-out: MMP09 (FL) IC50.
Setting [12] is: Table 1a, full-length enzyme, read-out: MMLP01 (FL) IC50.
The mark [13] stands for this setting: Table 1a, catalytic domain, read-out: MMP03 (CD) IC50.
Setting [14] is: MMP13 (CD) IC50 μM, Table 1a, catalytic domain.
Setting [15] is: Table VI, synthesis examples, read-out: MMP01.
[16] abbreviates: Table VI, synthesis examples, read-out: MMP02.
Setting [17] is: Table VI, synthesis examples, read-out: MMP014.
Where [18] appears, read: Table VI, synthesis examples, read-out: MMP09.
[19] abbreviates: Table VI, synthesis examples, read-out: MMP07.

MMP-9FL (full length Gelatinase B), sequence (P14780 94-707): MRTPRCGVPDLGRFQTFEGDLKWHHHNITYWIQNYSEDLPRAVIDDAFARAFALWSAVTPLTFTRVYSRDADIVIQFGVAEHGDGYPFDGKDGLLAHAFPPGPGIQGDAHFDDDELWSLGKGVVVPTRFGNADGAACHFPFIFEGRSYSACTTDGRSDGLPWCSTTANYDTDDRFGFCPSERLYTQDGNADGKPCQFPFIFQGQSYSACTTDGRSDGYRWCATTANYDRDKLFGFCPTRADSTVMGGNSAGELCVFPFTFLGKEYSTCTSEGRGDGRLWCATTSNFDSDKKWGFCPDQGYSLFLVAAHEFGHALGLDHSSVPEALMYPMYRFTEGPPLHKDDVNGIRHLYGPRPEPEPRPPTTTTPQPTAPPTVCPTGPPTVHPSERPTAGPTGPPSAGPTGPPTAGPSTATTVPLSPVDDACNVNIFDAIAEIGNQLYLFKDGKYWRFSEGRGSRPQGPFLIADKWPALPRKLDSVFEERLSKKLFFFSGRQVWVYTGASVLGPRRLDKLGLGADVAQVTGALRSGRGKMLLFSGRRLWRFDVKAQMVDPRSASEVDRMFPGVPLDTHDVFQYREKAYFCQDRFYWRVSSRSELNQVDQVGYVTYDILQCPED
MMP-3CD (catalytic domain of stromelysin), sequence (P08254 100-272 limits assumed): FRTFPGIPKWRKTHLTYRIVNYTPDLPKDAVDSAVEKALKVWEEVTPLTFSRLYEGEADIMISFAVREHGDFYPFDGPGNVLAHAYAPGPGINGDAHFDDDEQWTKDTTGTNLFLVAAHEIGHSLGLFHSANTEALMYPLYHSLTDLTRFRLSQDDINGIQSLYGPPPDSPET

As to `O=C(OCc1ccccc1)c1cn2c(=O)n(Cc3ccccc3)c(=O)cc2s1` [Example 1], the IC50 in data set [1] (setting [8]), in data set [2] (setting [9]), in data set [3] (setting [10]), in data set [4] (read-out: MMP03 (CD) IC50) and in data set [5] (setting [11]) was > 100 µM each time.

`O=C(NCc1ccccc1)c1cn2c(=O)n(Cc3ccccc3)c(=O)cc2s1` [Example 2]: the IC50 is > 100 µM in data set [1] (setting [8]); > 100 µM in data set [6] (setting [12]); 81 µM in [2] (setting [9]); > 100 µM in data set [3] (setting [10]); > 100 µM in data set [4] (setting [13]); 0.51 µM in [7] (setting [14]). Further, the IC50 in [5] (setting [11]) was > 100 µM.

On to `Cc1c(=O)n(Cc2ccccc2)c(=O)n2cc(C(=O)OCc3ccccc3)sc12` [Example 3], for which the IC50 was > 100 µM in data set [1] (setting [8]); > 100 µM in data set [2] (setting [9]); > 100 µM in data set [3]; > 30 µM in data set [4] (setting [13]); 0.0056 µM in [7] (setting [14]); > 100 µM in [5] (setting [11]).

Turning to `O=C(OCc1ccncc1)c1cn2c(=O)n(Cc3ccccc3)c(=O)cc2s1` [Example 4], the IC50 is ≥ 100 µM in data set [1] (setting [8]); ≥ 100 µM in data set [3] (setting [10]); ≥ 30 µM in data set [4] (setting [13]); 0.0054 µM in data set [7] (setting [14]); ≥ 100 µM in data set [5] (setting [11]).

As to `COc1ccc(CNC(=O)c2cn3c(=O)n(Cc4ccc(C(=O)O)cc4)c(=O)c(C)c3s2)cc1` [Example 5], the IC50 was > 100 µM in data set [1] (setting [8]); > 100 µM in data set [6] (setting [12]); > 100 µM in [2] (setting [9]); > 100 µM in data set [3] (setting [10]); 29 µM in data set [4] (setting [13]); 0.0015 µM in data set [7] (setting [14]). For the same molecule, the IC50 in [5] (setting [11]) was > 100 µM.

Take `Cc1c(=O)n(Cc2ccc(C(=O)O)cc2)c(=O)n2cc(C(=O)NCc3ccncc3)sc12` [Example 6]: the IC50 in data set [1] (setting [8]) is > 100 µM; in data set [2] (setting [9]), > 100 µM; in [3] (setting [10]), > 100 µM; in [4] (setting [13]) it was > 100 µM; in data set [7] (setting [14]) it was 0.0057 µM; in data set [5] (setting [11]), > 100 µM.

As to `Cc1c(=O)n(Cc2ccc(S(C)(=O)=O)cc2)c(=O)n2cc(C(=O)NCc3ccncc3)sc12` [Example 7], the IC50 in data set [1] (setting [8]) was > 100 µM; in [2] (setting [9]), > 100 µM; in data set [3] (setting [10]) it was > 100 µM; in [4] (setting [13]), > 100 µM; in data set [7] (setting [14]), 0.0235 µM; in data set [5] (setting [11]) it was > 100 µM.

With `COc1ccc(CNC(=O)c2cn3c(=O)n(Cc4ccc(Cl)c(Cl)c4)c(=O)cc3s2)cc1` [Example 8], the IC50 in data set [1] (setting [8]) was > 100 µM; in data set [6] (setting [12]), > 100 µM; in [2] (setting [9]), > 100 µM; in [3] (setting [10]) it was > 100 µM; in [4] (setting [13]), > 100 µM; in data set [7] (setting [14]), 0.084 µM. Also, the IC50 in data set [5] (setting [11]) was > 100 µM.

On to `COc1ccc(CNC(=O)c2cn3c(=O)n(Cc4ccc(C(=O)O)cc4)c(=O)c(C)c3s2)cc1` [Synthesis Example 5, 4-[2-(4-Methoxy-benzylcarbamoyl)-8-methyl-5,7-dioxo-7H-thiazolo[3,2-c]pyrimidin-6-ylmethyl]-benzoic acid], for which the melting point was > 210 °C.

Take `O=C(OCc1ccncc1)c1cc2c(=O)n(Cc3ccccc3)c(=O)[nH]c2s1` [Synthesis Example 18, 3-Benzyl-2,4-dioxo-1,2,3,4-tetrahydro-thieno[2,3-d]pyrimidine-6-carboxylic acid pyridin-4-ylmethyl ester]: the melting point was 248 to 250 °C.

`COC(=O)c1ccc(Cn2c(=O)c3cc(C(=O)NCc4ccc(OC)cc4)ccc3n3cnnc23)cc1` [Synthesis Example 59, Methyl 4-{7-[(4-methoxybenzyl)-carbamoyl]-5-oxo-5H-[1,2,4]triazolo[4,3-a]quinazol-4-ylmethyl}benzoate] had a melting point of 210 °C. In data set [7] (IC50 μM, Table V, MMP-13), this molecule displayed an IC50 of 0.0026 µM.

For `O=C(O)c1ccc(Cn2c(=O)c3cc(C(=O)NCc4ccc5c(c4)OCO5)ccc3n3cnnc23)cc1` [Synthesis Example 61, 4-{7-[(1,3-Benzodioxol-5-ylmethyl)-carbamoyl]-5-oxo-5H-[1,2,4]triazolo[4,3-a]quinazol-4-ylmethyl}benzoic acid], the melting point is 235 °C. The molecule further gave an IC50 in data set [7] (IC50 μM, Table V, MMP-13) of 0.0009 µM.

On to `Cc1cc(C)c(N(Cc2ccccc2)S(=O)(=O)c2ccc(OCCNC(=O)c3cc4ccccc4o3)cc2)c(C(=O)NO)c1` [WAY-170523], for which the “selectivity for MMP-13” value at MMP-13 (as reported by Chen et al.) is recorded as “selective inhibitor of MMP-13”.

As for `CN1C(=O)N(Cc2ccccc2)S(=O)(=O)c2cc(C(=O)OCc3ccccc3)ccc21` [compound 62], the IC50 in data set [6] (setting [15]), in data set [2] (setting [16]), in data set [3] (setting [17]) and in [5] (setting [18]) was > 100 µM in each case.

As for `CN1C(=O)N(Cc2ccccc2)S(=O)(=O)c2cc(C(=O)NCc3ccccc3)ccc21` [compound 63], the IC50 in data set [1] (setting [19]) was > 30 µM; in data set [6] (setting [15]) it was > 100 µM; in data set [2] (setting [16]), > 30 µM; in data set [3] (setting [17]), > 30 µM; in data set [4] (Table VI, synthesis examples, read-out: MMP03), > 30 µM; in data set [5] (setting [18]), > 30 µM.

For `COc1ccc(CNC(=O)c2ccc3c(c2)S(=O)(=O)N(Cc2ccc([N+](=O)[O-])cc2)C(=O)N3C)cc1` [compound 65], the IC50 in data set [1] (setting [19]), in [6] (setting [15]), in data set [3] (setting [17]) and in data set [5] (setting [18]) was > 30 µM each time.

Turning to `O=C(NCCCCN1CCOCC1)c1cc2ccccc2o1` [compound of the formula I], the “inhibition against MMP-13” value on MMP-13 (high throughput screening hit, Chen et al.) is on record as “weak inhibition”. Besides, in the data set on other MMP enzymes, the “activity against other MMP enzymes” value is “inactive”.

The melting point is the temperature of the solid-liquid transition.
